From publication PMC8248323 (Clinical Pharmacology in Drug Development, 2021)

How the values were obtained:
[1] = target: P‐gp (Homo sapiens, UniProt P08183); assay: In vitro transporter inhibition; type: in vitro ADME
[2] = target: CYP1A2 (Homo sapiens, UniProt P05177); assay: In vitro CYP inhibition; type: in vitro ADME
[3] = target: OATP1B1 (Homo sapiens, UniProt Q9Y6L6); assay: In vitro transporter substrate assessment; type: in vitro ADME
[4] = Phase 1 DDI study 004 part B: midazolam; conditions: clinically relevant concentrations, daily dosing up to 10 mg
[5] = target: CYP2C19 (Homo sapiens, UniProt P33261); assay: In vitro CYP inhibition; type: in vitro ADME
Chain of CYP2C19 (P33261 whole entry): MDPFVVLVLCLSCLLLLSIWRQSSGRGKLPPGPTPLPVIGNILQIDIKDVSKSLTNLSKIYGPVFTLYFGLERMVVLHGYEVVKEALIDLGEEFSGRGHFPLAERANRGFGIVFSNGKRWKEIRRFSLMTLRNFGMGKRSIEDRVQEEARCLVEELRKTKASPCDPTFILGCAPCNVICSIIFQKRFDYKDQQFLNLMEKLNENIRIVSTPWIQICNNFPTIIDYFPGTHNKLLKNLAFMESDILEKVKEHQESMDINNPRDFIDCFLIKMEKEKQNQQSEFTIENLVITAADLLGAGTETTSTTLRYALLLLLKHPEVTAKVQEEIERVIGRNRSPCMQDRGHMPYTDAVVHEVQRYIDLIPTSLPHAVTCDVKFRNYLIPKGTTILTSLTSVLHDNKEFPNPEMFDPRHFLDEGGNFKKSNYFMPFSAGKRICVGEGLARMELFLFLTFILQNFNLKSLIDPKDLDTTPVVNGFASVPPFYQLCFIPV

Chain of OATP1B1 (Q9Y6L6 whole entry): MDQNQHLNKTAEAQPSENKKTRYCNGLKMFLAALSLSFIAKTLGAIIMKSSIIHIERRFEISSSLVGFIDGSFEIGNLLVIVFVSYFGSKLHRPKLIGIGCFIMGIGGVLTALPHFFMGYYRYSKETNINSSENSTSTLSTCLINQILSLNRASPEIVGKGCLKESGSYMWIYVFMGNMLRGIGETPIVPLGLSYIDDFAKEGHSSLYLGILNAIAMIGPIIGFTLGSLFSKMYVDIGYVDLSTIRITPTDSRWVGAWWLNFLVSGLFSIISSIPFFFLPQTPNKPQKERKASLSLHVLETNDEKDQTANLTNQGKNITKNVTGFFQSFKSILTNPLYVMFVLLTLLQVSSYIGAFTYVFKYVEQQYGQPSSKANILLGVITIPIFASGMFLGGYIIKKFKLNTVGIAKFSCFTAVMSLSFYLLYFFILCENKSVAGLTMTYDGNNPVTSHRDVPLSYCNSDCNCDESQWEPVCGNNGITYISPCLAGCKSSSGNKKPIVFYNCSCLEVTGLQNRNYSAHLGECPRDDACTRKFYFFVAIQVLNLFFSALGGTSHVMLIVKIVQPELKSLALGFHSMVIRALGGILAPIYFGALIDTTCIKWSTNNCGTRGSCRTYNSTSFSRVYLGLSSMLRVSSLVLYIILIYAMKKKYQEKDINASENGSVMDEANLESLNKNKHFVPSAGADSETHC
Chain of CYP1A2 (P05177 whole entry): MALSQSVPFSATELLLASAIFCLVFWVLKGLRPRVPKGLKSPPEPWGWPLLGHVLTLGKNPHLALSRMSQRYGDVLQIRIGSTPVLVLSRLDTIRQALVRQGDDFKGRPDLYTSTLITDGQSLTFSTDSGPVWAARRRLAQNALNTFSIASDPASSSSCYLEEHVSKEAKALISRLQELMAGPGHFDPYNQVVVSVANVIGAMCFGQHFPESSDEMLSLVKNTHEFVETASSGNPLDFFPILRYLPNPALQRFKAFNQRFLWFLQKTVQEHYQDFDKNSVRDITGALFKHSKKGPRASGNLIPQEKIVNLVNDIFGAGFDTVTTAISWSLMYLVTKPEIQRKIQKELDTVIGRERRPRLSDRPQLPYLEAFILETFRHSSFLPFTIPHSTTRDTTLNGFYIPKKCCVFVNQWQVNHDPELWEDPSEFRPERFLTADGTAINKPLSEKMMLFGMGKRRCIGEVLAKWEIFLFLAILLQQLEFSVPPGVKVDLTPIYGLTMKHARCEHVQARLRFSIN
Chain of P‐gp (P08183 whole entry): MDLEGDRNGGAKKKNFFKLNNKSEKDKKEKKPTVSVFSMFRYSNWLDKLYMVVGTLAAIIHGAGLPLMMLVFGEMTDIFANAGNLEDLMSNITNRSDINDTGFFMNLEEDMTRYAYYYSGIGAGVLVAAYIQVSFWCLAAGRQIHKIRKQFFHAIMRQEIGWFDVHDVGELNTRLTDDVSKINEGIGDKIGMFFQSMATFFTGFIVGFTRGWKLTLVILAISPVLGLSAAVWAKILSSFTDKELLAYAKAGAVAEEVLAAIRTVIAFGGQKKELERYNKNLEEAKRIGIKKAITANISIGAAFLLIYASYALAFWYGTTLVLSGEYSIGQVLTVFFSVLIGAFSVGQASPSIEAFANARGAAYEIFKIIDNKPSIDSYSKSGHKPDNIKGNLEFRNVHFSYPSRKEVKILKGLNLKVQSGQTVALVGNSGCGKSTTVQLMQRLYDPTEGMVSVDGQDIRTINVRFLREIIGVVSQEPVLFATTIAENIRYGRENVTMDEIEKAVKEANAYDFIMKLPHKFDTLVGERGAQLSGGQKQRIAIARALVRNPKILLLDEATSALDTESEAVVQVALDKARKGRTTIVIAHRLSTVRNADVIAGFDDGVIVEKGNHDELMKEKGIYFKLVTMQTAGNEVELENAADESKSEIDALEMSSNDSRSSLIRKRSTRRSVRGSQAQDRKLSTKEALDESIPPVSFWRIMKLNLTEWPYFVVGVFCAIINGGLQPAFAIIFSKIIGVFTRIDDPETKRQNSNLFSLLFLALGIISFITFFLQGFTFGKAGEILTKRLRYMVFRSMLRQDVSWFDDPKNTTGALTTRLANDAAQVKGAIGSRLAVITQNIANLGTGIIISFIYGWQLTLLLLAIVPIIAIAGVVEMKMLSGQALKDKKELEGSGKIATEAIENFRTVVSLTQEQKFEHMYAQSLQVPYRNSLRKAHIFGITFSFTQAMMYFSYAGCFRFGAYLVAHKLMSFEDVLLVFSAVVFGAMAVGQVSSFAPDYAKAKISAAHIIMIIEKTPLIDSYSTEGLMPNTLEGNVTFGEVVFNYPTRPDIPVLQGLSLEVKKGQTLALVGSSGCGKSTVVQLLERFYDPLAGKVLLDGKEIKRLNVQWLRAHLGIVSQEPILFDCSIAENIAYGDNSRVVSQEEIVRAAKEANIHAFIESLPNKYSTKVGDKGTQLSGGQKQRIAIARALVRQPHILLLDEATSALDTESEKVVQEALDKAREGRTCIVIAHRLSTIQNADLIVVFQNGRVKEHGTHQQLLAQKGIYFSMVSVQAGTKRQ

## Cc1ncc(OC[C@@]2(c3cccc(F)c3)C[C@H]2C(=O)Nc2ccc(F)cn2)c(C)n1 [Lemborexant, (1R,2S)‐2‐{[(2,4‐dimethylpyrimidin‐5‐yl)oxy]methyl}‐2‐(3‐fluorophenyl)‐N‐(5‐fluoropyridin‐2‐yl)cyclopropanecarboxamide]
[1]
  inhibition of P‐gp: do not inhibit
[2]
  inhibition of CYP1A2: do not inhibit
[3]
  substrate of OATP1B1: neither lemborexant nor M10 was a substrate
[4]
  clinical effect on CYP2B6: has the potential to induce CYP2B6
[5]
  inhibition of CYP2C19: do not inhibit
